Experimental data from PMC3338416, “A Chemocentric Approach to the Identification of Cancer Targets” (PLoS ONE, 2012).

What was measured:
HCT116 cells = assay: High-throughput resazurin (Alamar blue) cytotoxicity / antiproliferative assay on tumor HCT116 cells; assay type: cell-based, human; details: for effect on proliferation of HCT116 cells: dose-response curves (Figure S4)
Procedure: (§1) A colon adenocarcinoma (HCT116) and normal human lung fibroblast (MRC-5) cell lines were purchased from the American Type Culture Collection (ATCC, Manassas, VA). HCT116 cells were maintained in McCoy's 5a Modified Medium supplemented with 10% FBS, 100 units/ml penicillin, and 100 µg/ml streptomycin at 37°C in a humidified 5% CO2 incubator. Subculturing was done using 1∶5 ratio twice a week. MRC-5 cells were maintained in DMEM supplemented with 10% FBS, 100 units/ml penicillin, and 100 µg/ml streptomycin at 37°C in a humidified 5% CO2 incubator. Subculturing was done using 1∶3 ratio twice a week. A cell bank was established for the cell lines used during the differential toxicity screening campaign.
The high-throughput in vitro assay for measuring toxicity and antiproliferative effects of small molecules was implemented as described earlier. Cell lines were grown in culture flasks to 90% confluences, then harvested in counted cell density and seeded into 384-well microtiter plates. Test compounds were then added in various concentrations (in 2% DMSO final concentration) and incubated with the cells in CO2 incubators at 37°C for 48 h. […] During this period, FBS content of the medium was decreased to avoid the masking effect of FBS on toxicity. Detection of viability is based on the reduction of resazurin (Alamar blue) by living cells, resulting in an increased fluorescent signal. For the transformation of the assay into a high-throughput format, a Beckman Biomek liquid handling system and a Wallac Victor plate reader were used. Protocols needed for handling the 384-well plates were established for both single-concentration screening and dose-response curve determination. A plate map was used for the validation of the assay on 384-well plates, which is suitable for the determination of dose-response curves for 16 compounds at the same time using 6 concentrations in triplicate. This experiment was run in parallel on 5 plates and repeated three times on different days. From the dose-response curves, IC50 values were determined and analyzed. […] Based on the established assay protocol, single-point screenings were done at 50 µM compound concentration in duplicate. Likewise, IC50 values were obtained from the toxicity dose-response curves from six compound concentrations in duplicate and calculated with Microcal Origin 5.0.

colon HCT116 cell lines = tested on: colon HCT116 cell lines; design: method as in PMID 19933261; details: cited from earlier work
[1] = target: amine oxidase flavin-containing B enzyme (MAO-B); design: method as in PMID 19933261; details: reported in PubChem; cited from earlier work
HCT116 cell lines = tested on: HCT116 cell lines; design: method as in PMID 21617858; details: read-out: IC50, growth of HCT116 cell lines; cited from earlier work
MRC-5 cells = assay: High-throughput resazurin (Alamar blue) cytotoxicity / antiproliferative assay on normal MRC-5 cells; assay type: cell-based, human; details: dose-response curves (Figure S4)
Procedure: as §1, with “A cell bank was established for the cell lines used during the differential toxicity screening campaign.” left out
The high-throughput in vitro assay for measuring toxicity and antiproliferative effects of small molecules was implemented as described earlier. Cell lines were grown in culture flasks to 90% confluences, then harvested in counted cell density and seeded into 384-well microtiter plates. […] For the transformation of the assay into a high-throughput format, a Beckman Biomek liquid handling system and a Wallac Victor plate reader were used. […] From the dose-response curves, IC50 values were determined and analyzed. To test the reproducibility and robustness of the assay for high-throughput screening, Z′ factors (∼0.72) and S/B ratios (∼10) were determined and the respective plate-to-plate and day-to-day coefficients of variation found to be 5.0%, 2.7%, 1.7% and 5.6%. […]

HCT116 cell = tested on: HCT116 cell; design: method as in PMID 19139018; details: cited from earlier work

O=C1c2ccccc2-c2nc(-c3cccc([N+](=O)[O-])c3)nnc21 [NSC680350]
pGI50 obtained in this work on HCT116 cell lines (HCT116 cells): 5.19
GI50 (HCT116 cells; dose-response curve, Figure S5, read-out: GI50 on HCT116 cell lines): 6.4 µM
pGI50 for colon HCT116 cell lines reported in PubChem (colon HCT116 cell lines): 4.64
IC50 [1]: 80 nM

CN(C)C/C=C/C(=O)Nc1cc2c(Nc3ccc(F)c(Cl)c3)ncnc2cc1O[C@H]1CCOC1 [afatinib]
IC50 (HCT116 cell lines): 1620 nM

O=C(CCCCCCC(=O)Nc1ccccc1)NO [SAHA, suberoylanilide hydroxamic acid]
effect on proliferation of HCT116 cells (HCT116 cells): inhibited the proliferation of HCT116 cells in a dose dependent manner
effect on MRC-5 cells (MRC-5 cells): little or no effect

O=C(c1ccc(OCCN2CCCCC2)cc1)c1c(-c2ccc(O)cc2)sc2cc(O)ccc12 [raloxifene]
inhibition of HCT116 cell growth (HCT116 cell): inhibit HCT116 cell growth in a dose-dependent manner

C=CCNC1=C2C[C@@H](C)C[C@H](OC)[C@H](O)[C@@H](C)/C=C(\C)[C@H](OC(N)=O)[C@@H](OC)/C=C\C=C(/C)C(=O)NC(=CC1=O)C2=O [17AAG, 17-(allylamino)-17-demethoxygeldanamycin]
IC50 (HCT116 cells; 48 h incubation, dose-response, six concentrations in duplicate): 200 nM
fold selectivity relative to the antiproliferative effect on MRC-5 cells (HCT116 cells; IC50(MRC-5)/IC50(HCT116)): 93 fold
effect on proliferation of HCT116 cells (HCT116 cells): inhibited the proliferation of HCT116 cells in a dose dependent manner
effect on MRC-5 cells (MRC-5 cells): little or no effect
